# Tests used:
# Experiment in all cases: relative viability (nuclei count vs DMSO), 5 days (fraction); higher = more cells survive
# [1] = compound: C/C(=N\NC(=S)N1CCC1)/C2=CC=CC=N2
# In short: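 Lung cancer cell lines received five library-drug doses (not always all listed) spaced by √10, pinned on vehicle-anchored 1536-well plates after an overnight stay at 37 °C. Five days later, with no medium change, nuclei were Hoechst-stained, imaged at 4× and counted with MetaXpress. Viability is treated-well nuclei relative to vehicle-well nuclei, as a median across plates. Passing plates had control CV below 25% and at least one doubling.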
# [2] = compound: C/C(=N\NC(=S)N1CCC1)/C2=CC=CC=N2 + CC(=O)Nc1cccc(-n2c(=O)n(C3CC3)c(=O)c3c(Nc4ccc(I)cc4F)n(C)c(=O)c(C)c32)c1 [Trametinib] (partner 0.02 µM)
# In short: (§1)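 Five library-drug doses in √10 steps were combined with a fixed anchor-drug dose, or a single drug was given alone, by pin tool to lung cancer cell lines in 1536-well plates the day after seeding. Nuclei were stained and counted after 5 days. Relative viability is the nuclei count in treated wells over that in vehicle wells, taken as the median of duplicate plates.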
# [3] = compound: C/C(=N\NC(=S)N1CCC1)/C2=CC=CC=N2 + CC(=O)c1c(C)c2cnc(Nc3ccc(N4CCNCC4)cn3)nc2n(C2CCCC2)c1=O [Palbociclib] (partner 0.5 µM)
# In short: as §1
# [4] = compound: C/C(=N\NC(=S)N1CCC1)/C2=CC=CC=N2 + CCNC(=O)c1noc(-c2cc(C(C)C)c(O)cc2O)c1-c1ccc(CN2CCOCC2)cc1 [Luminespib] (partner 0.01 µM)
# In short: as §1
# [5] = compound: C/C(=N\NC(=S)N1CCC1)/C2=CC=CC=N2 + COc1cc2c(Oc3ccc(NC(=O)C4(C(=O)Nc5ccc(F)cc5)CC4)cc3F)ccnc2cc1OCCCN1CCOCC1 [Foretinib] (partner 0.25 µM)
# In short: as §1
# [6] = compound: C/C(=N\NC(=S)N1CCC1)/C2=CC=CC=N2 + COc1cccc2cc(-c3nc([C@H]4CC[C@H](C(=O)O)CC4)n4ncnc(N)c34)[nH]c12 [OSI-027] (partner 0.5 µM)
# In short: as §1
# [7] = compound: C/C(=N\NC(=S)N1CCC1)/C2=CC=CC=N2 + Cc1cc(Nc2cc(N3CCN(C)CC3)nc(Sc3ccc(NC(=O)C4CC4)cc3)n2)n[nH]1 [Tozasertib] (partner 0.1 µM)
# In short: as §1
# [8] = compound: C/C(=N\NC(=S)N1CCC1)/C2=CC=CC=N2 + Cc1nc(Nc2ncc(C(=O)Nc3c(C)cccc3Cl)s2)cc(N2CCN(CCO)CC2)n1 [Dasatinib] (partner 0.075 µM)
# In short: as §1
# [9] = compound: C/C(=N\NC(=S)N1CCC1)/C2=CC=CC=N2 + N=C(N)NC(=N)NCCc1ccccc1 [Phenformin] (partner 250 µM)
# In short: as §1
# [10] = compound: C/C(=N\NC(=S)N1CCC1)/C2=CC=CC=N2 + NC(=O)Nc1cc(-c2cccc(F)c2)sc1C(=O)N[C@H]1CCCNC1 [AZD7762] (partner 0.2 µM)
# In short: as §1
# [11] = compound: C/C(=N\NC(=S)N1CCC1)/C2=CC=CC=N2 + Nc1nc2[nH]cc(CCc3ccc(C(=O)N[C@@H](CCC(=O)O)C(=O)O)cc3)c2c(=O)[nH]1 [Pemetrexed] (partner 0.2 µM)
# In short: as §1
# [12] = compound: C/C(=N\NC(=S)N1CCC1)/C2=CC=CC=N2 + Nc1ncn([C@H]2C[C@H](O)[C@@H](CO)O2)c(=O)n1 [Decitabine] (partner 2 µM)
# In short: as §1
# [13] = compound: C/C(=N\NC(=S)N1CCC1)/C2=CC=CC=N2 + O=C(CCCCCCC(=O)Nc1ccccc1)NO [Vorinostat] (partner 1 µM)
# In short: as §1
# [14] = compound: C/C(=N\NC(=S)N1CCC1)/C2=CC=CC=N2 + O=C(c1cc(Cc2n[nH]c(=O)c3ccccc23)ccc1F)N1CCN(C(=O)C2CC2)CC1 [Olaparib] (partner 8 µM)
# In short: as §1
cell line,measurement,setting,value
SW 900,relative viability,[1]; 0.05 µM,0.147
same,relative viability,[1]; 0.1581 µM,0.135
same,relative viability,[1]; 0.5 µM,0.0841
same,relative viability,[1]; 1.581 µM,0.127
same,relative viability,[1]; 5 µM,0.188
same,relative viability,[2]; first compound 0.05 µM,0.125
same,relative viability,[2]; first compound 0.1581 µM,0.165
same,relative viability,[2]; first compound 0.5 µM,0.137
same,relative viability,[2]; first compound 1.581 µM,0.142
same,relative viability,[2]; first compound 5 µM,0.168
same,relative viability,[3]; first compound 0.05 µM,0.171
same,relative viability,[3]; first compound 0.1581 µM,0.136
same,relative viability,[3]; first compound 0.5 µM,0.134
same,relative viability,[3]; first compound 1.581 µM,0.175
same,relative viability,[3]; first compound 5 µM,0.197
same,relative viability,[4]; first compound 0.05 µM,0.162
same,relative viability,[4]; first compound 0.1581 µM,0.144
same,relative viability,[4]; first compound 0.5 µM,0.106
same,relative viability,[4]; first compound 1.581 µM,0.124
same,relative viability,[4]; first compound 5 µM,0.184
same,relative viability,[5]; first compound 0.05 µM,0.117
same,relative viability,[5]; first compound 0.1581 µM,0.114
same,relative viability,[5]; first compound 0.5 µM,0.0636
same,relative viability,[5]; first compound 1.581 µM,0.068
same,relative viability,[5]; first compound 5 µM,0.15
same,relative viability,[6]; first compound 0.05 µM,0.0629
same,relative viability,[6]; first compound 0.1581 µM,0.1
same,relative viability,[6]; first compound 0.5 µM,0.0605
same,relative viability,[6]; first compound 1.581 µM,0.0573
same,relative viability,[6]; first compound 5 µM,0.119
same,relative viability,[7]; first compound 0.05 µM,0.155
same,relative viability,[7]; first compound 0.1581 µM,0.107
same,relative viability,[7]; first compound 0.5 µM,0.0961
same,relative viability,[7]; first compound 1.581 µM,0.14
same,relative viability,[7]; first compound 5 µM,0.178
same,relative viability,[8]; first compound 0.05 µM,0.129
same,relative viability,[8]; first compound 0.1581 µM,0.134
same,relative viability,[8]; first compound 0.5 µM,0.112
same,relative viability,[8]; first compound 1.581 µM,0.0964
same,relative viability,[8]; first compound 5 µM,0.248
same,relative viability,[9]; first compound 0.05 µM,0.0993
same,relative viability,[9]; first compound 0.1581 µM,0.114
same,relative viability,[9]; first compound 0.5 µM,0.105
same,relative viability,[9]; first compound 1.581 µM,0.0942
same,relative viability,[9]; first compound 5 µM,0.147
same,relative viability,[10]; first compound 0.05 µM,0.188
same,relative viability,[10]; first compound 0.1581 µM,0.122
same,relative viability,[10]; first compound 0.5 µM,0.0988
same,relative viability,[10]; first compound 1.581 µM,0.188
same,relative viability,[10]; first compound 5 µM,0.171
same,relative viability,[11]; first compound 0.05 µM,0.127
same,relative viability,[11]; first compound 0.1581 µM,0.081
same,relative viability,[11]; first compound 0.5 µM,0.0901
same,relative viability,[11]; first compound 1.581 µM,0.122
same,relative viability,[11]; first compound 5 µM,0.196
same,relative viability,[12]; first compound 0.05 µM,0.21
same,relative viability,[12]; first compound 0.1581 µM,0.231
same,relative viability,[12]; first compound 0.5 µM,0.16
same,relative viability,[12]; first compound 1.581 µM,0.201
same,relative viability,[12]; first compound 5 µM,0.17
same,relative viability,[13]; first compound 0.05 µM,0.145
same,relative viability,[13]; first compound 0.1581 µM,0.149
same,relative viability,[13]; first compound 0.5 µM,0.0776
same,relative viability,[13]; first compound 1.581 µM,0.125
same,relative viability,[13]; first compound 5 µM,0.183
same,relative viability,[14]; first compound 0.05 µM,0.233
same,relative viability,[14]; first compound 0.1581 µM,0.116
same,relative viability,[14]; first compound 0.5 µM,0.135
same,relative viability,[14]; first compound 1.581 µM,0.164
same,relative viability,[14]; first compound 5 µM,0.16

# From the supplement of paper PMC10307832
